Data from US11702646B2, “Methods for modulating RNA splicing” (PTC THERAPEUTICS, INC., priority 2016, dated 2023).

Assays:
[1] = tested on: RNA transcripts in HDF cell line; assay: ΔPSI (iExon production / exon inclusion), FET and Fold Decrease of RNA transcripts in HDF cell line treated at 3 μM; assay type: cell-based; conditions: for FD HDF: Fold Decrease
Description: Results: The statistically significant value for the likelihood of iExon production (ΔPSI) according to the Fisher's Exact Test (FET) for PNN and HDF cell lines treated with Compound 774 at 3 μM and Fold Decrease (FD) for certain genes tested, where NR represents “Not Reported,” is shown in Table 10.
(§1) The ΔPSI for inclusion of an iExon and resulting modulated expression of RNA transcripts identified is represented by stars, where one star (*) represents ≤25% change in expression, where two stars (**) represent change in expression in a range from <26% to ≤50% change, where three stars (***) represent change in expression in a range from <51% to ≤75% change, and, where four stars (****) represent change in expression in a range from <75% to ≤100% change.
Results: The statistically significant value for the likelihood of exon inclusion (ΔPSI) according to the Fisher's Exact Test (FET) for PNN and HDF cell lines treated with Compound 774 at 3 μM and Fold Decrease (FD) for certain genes tested, where NR represents “Not Reported,” is shown in Table 10a.
as §1, with “exon” for “iExon”

[2] = tested on: iExons for certain genes (as specified in the figures); assay: Dose dependent production of iExons in the presence of compound or control (DMSO); assay type: cell-based; conditions: FIGS. 2A-2D, versus control (DMSO)
Description: In some embodiments, a dose-response assay is performed. […] In another embodiment, the dose-response assay comprises: (a) contacting each well of a microtiter plate containing cells with a different concentration of a compound of Formula (I) or a form thereof; (b) determining the amount of an RNA transcript produced by cells in each well; and (c) assessing the change of the amount of the RNA transcript at the different concentrations of the compound or form thereof. […]
In specific embodiments, the amount of alternatively spliced forms of the RNA transcripts of a particular gene are measured to see if there is an alteration in the amount of one, two or more alternatively spliced forms of the RNA transcripts of the gene. In some embodiments, the amount of an isoform(s) encoded by a particular gene is measured to see if there is an alteration in the amount of the isoform(s). In certain embodiments, the levels of spliced forms of RNA are quantified by RT-PCR, RT-qPCR, RNA-Seq, digital color-coded barcode technology, or Northern blot. […] In certain embodiments, splicing is measured in vitro using nuclear extracts. In some embodiments, detection is based on measuring radioactivity or fluorescence. […] In a specific embodiment, modulation of RNA transcripts is assessed as described in the Examples described herein.

[3] = gene FAM198B, exon e3, HDF cells, 3 μM
[4] = gene PRUNE2, exon e18, HDF cells, 3 μM

CCc1nc(C)cn2nc(-c3cc(=O)n4cc(C5CCN(C)CC5)cc(C)c4n3)cc12 [Compound 774]
FD HDF [1, 3]: −0.35 | FD HDF [1, 4]: −1.74 | ΔPSI (HDF) ([1]; gene APLP2, exon e7, HDF cells, 3 μM): ** (two stars (**) represent change in expression in a range from <26% to ≤50% change) | ΔPSI (HDF) ([1]; gene AXIN1, exon e9, HDF cells, 3 μM): * (one star (*) represents ≤25% change in expression) | ΔPSI (HDF) ([1]; gene CECR7, exon e5, HDF cells, 3 μM): * (one star (*) represents ≤25% change in expression) | ΔPSI (HDF) ([1]; gene DAGLB, exon e4, HDF cells, 3 μM): * (one star (*) represents ≤25% change in expression) | ΔPSI (HDF) ([1]; gene DLGAP4, exon e8, HDF cells, 3 μM): * (one star (*) represents ≤25% change in expression) | ΔPSI (HDF) ([1]; gene ERCC1, exon e8, HDF cells, 3 μM): * (one star (*) represents ≤25% change in expression) | ΔPSI (HDF) ([1]; gene ERGIC3, exon e8, HDF cells, 3 μM): * (one star (*) represents ≤25% change in expression) | ΔPSI (HDF) [1, 3]: * (one star (*) represents ≤25% change in expression) | ΔPSI (HDF) ([1]; gene GGCT, exon e2, HDF cells, 3 μM): ** (two stars (**) represent change in expression in a range from <26% to ≤50% change) | ΔPSI (HDF) ([1]; gene HAT1, exon e3, HDF cells, 3 μM): * (one star (*) represents ≤25% change in expression) | ΔPSI (HDF) ([1]; gene HPS1, exon e5, HDF cells, 3 μM): * (one star (*) represents ≤25% change in expression) | ΔPSI (HDF) ([1]; gene INPP5K, exon e2, HDF cells, 3 μM): * (one star (*) represents ≤25% change in expression) | ΔPSI (HDF) ([1]; gene MADD, exon e21, HDF cells, 3 μM): * (one star (*) represents ≤25% change in expression) | ΔPSI (HDF) ([1]; gene PPHLN1, exon e3, HDF cells, 3 μM): ** (two stars (**) represent change in expression in a range from <26% to ≤50% change) | ΔPSI (HDF) [1, 4]: ** (two stars (**) represent change in expression in a range from <26% to ≤50% change) | ΔPSI (HDF) ([1]; gene RAP1A, exon e2, HDF cells, 3 μM): * (one star (*) represents ≤25% change in expression) | ΔPSI (HDF) ([1]; gene RNFT1, exon e3, HDF cells, 3 μM): * (one star (*) represents ≤25% change in expression) | ΔPSI (HDF) ([1]; gene RPS6KB2, exon e2, HDF cells, 3 μM): * (one star (*) represents ≤25% change in expression) | ΔPSI (HDF) ([1]; gene SH3YL1, exon e9, HDF cells, 3 μM): * (one star (*) represents ≤25% change in expression) | ΔPSI (HDF) ([1]; gene SKA2, exon e3, HDF cells, 3 μM): * (one star (*) represents ≤25% change in expression) | ΔPSI (HDF) ([1]; gene SPATA18, exon e4, HDF cells, 3 μM): * (one star (*) represents ≤25% change in expression) | ΔPSI (HDF) ([1]; gene STRN3, exon e8, HDF cells, 3 μM): *** (three stars (***) represent change in expression in a range from <51% to ≤75% change) | ΔPSI (HDF) ([1]; gene TMEM189-UBE2V1, exon e6, HDF cells, 3 μM): * (one star (*) represents ≤25% change in expression) | ΔPSI (HDF) ([1]; gene TRIM65, exon e5, HDF cells, 3 μM): ** (two stars (**) represent change in expression in a range from <26% to ≤50% change) | ΔPSI (HDF) ([1]; gene TUBE1, exon e4, HDF cells, 3 μM): * (one star (*) represents ≤25% change in expression) | ΔPSI (HDF) ([1]; gene UBE2V1, exon e3, HDF cells, 3 μM): * (one star (*) represents ≤25% change in expression) | ΔPSI (HDF) ([1]; gene VPS29, exon e2, HDF cells, 3 μM): ** (two stars (**) represent change in expression in a range from <26% to ≤50% change) | ΔPSI (HDF) ([1]; gene ZFP82, iExon inclusion position i4, HDF cell line, Compound 774 at 3 μM): ** (two stars (**) represent change in expression in a range from <26% to ≤50% change) | ΔPSI (HDF) ([1]; gene ZNF37BP, iExon inclusion position i4, HDF cell line, Compound 774 at 3 μM): *** (three stars (***) represent change in expression in a range from <51% to ≤75% change) | ΔPSI (HDF) ([1]; gene ZNF138, iExon inclusion position i3, HDF cell line, Compound 774 at 3 μM): * (one star (*) represents ≤25% change in expression) | ΔPSI (HDF) ([1]; gene ZNF232, iExon inclusion position i4, HDF cell line, Compound 774 at 3 μM): * (one star (*) represents ≤25% change in expression) | ΔPSI (HDF) ([1]; gene ZNF680, exon e3, HDF cells, 3 μM): * (one star (*) represents ≤25% change in expression) | dose dependent production of iExons for certain genes [2]: dose dependent production of iExons
